According to patent US10766912B2 (priority 2017, dated 2020):
Like-named read-outs stand apart in the source and are kept apart here.

Columns and labels:
[1] = Assay Example 3: parallel cytotoxicity assay (alamarBlue) without viral infection; assay type: cell-based; details: human, Huh7.5.1 cells without viral infection, no viral infection, read-out: CC50 Value HCVcc
Description: (§1) Cells: Huh7.5.1 cells and hepatitis C virus HCVcc (GT2a, JFH-1) infection system.
(§2) Treatment of Compound: According to the assay final concentrations of the compounds in Table 6, DMSO stock solutions of the compounds were diluted and then added to a 96-well assay plate. The final concentration of DMSO was 0.5%.
(§3) Viral infection: Huh7.5.1 cells were seeded in a 96-well cell culture plate, and the cells were cultured overnight at 37° C. in an incubator with 5% CO2 for later use. The compound and the HCVcc virus solution (MOI=0.1) were simultaneously added to the cells, and the virus infection was cultured for 3 days. Parallel cytotoxicity assay was identical to the method for the inhibition of the virus but without viral infection.
Cell viability assay: Cell viability was detected by the addition of alamarBlue assay reagent. The original data (RFU) was used for the calculation of the cytotoxicity of the compounds.
The cytotoxicity of the compounds was calculated by using the equation below: Cell Viability %=CPD/CC×100%*
(§4) The cell viability percentages (Cell Viability %) and the compound activity percentages (Inhibition %) were imported into GraphPad Prism software, respectively, and curves were fitted by using nonlinear regression method to obtain the corresponding curves of the compounds, and the cytotoxicity (CC50) thereof and inhibitory activity (EC50) values against the HCV replicon thereof.

[2] = test system: HCV GT1b/3a NS5A chimeric replicon; assay: Assay Example 2: activity against GT1b/3a NS5A chimeric replicon; assay type: cell-based; details: Hepatitis C virus, Huh-7, 72 h, read-out: EC50 Value GT1b/3a-NS5A-wt
Description: (§5) Cells: Huh-7 cells are liver cancer cell strains (from AppTec, USA), HCV GT1a and GT1b wild type (wt) replicons, GT1b/3a, GT1b/4a, GT1b/5a and GT1b/6a NS5A chimeric replicons.
(§6) Treatment of Compound: According to the assay final concentrations of the compounds in Table 5, DMSO stock solutions of the compounds were diluted and then added to a 96-well assay plate. The final concentration of DMSO was 0.5%.
(§7) The preparation of cells: After replicon plasmid DNA was linearized with a corresponding restriction enzyme, the DNA was transcribed into RNA by using T7 RNA polymerase. Replicon RNA prepared by transcription in vitro was transfected into Huh-7 cells by electroporation. Transfected cells were seeded at a density of 10,000 cells per well into the 96-well assay plate containing the diluted compounds, and then placed in a 37° C. incubator with 5% CO2 and cultured for 3 days.
(§8) Drug activity assay: Luminescence signal value (RLU) was detected with Envision within 15 minutes using the luciferase assay reagent Britelite plus, and the original data (RLU) was used for the calculation of the activity of the compounds.
(§9) The cytotoxicity of the compounds was calculated by using the equation below: Cell Viability %=(CPD−HPE)/(ZPE−HPE)×100%* The activity of the compounds was calculated by using the equation below: Inhibition %=(ZPE−CPD)/(ZPE−HPE)×100%*
(§10) The cell viability percentages (Viability %) and the inhibition percentages (Inhibition %) were imported into GraphPad Prism software, respectively, and curves were fitted by using nonlinear regression method to obtain the corresponding curves of the compounds, and the cytotoxicity (CC50) thereof and the inhibitory activity (EC50) values against the HCV replicon thereof.

[3] = test system: HCV GT1b/5a NS5A chimeric replicon; assay: Assay Example 2: activity against GT1b/5a NS5A chimeric replicon; assay type: cell-based; details: Hepatitis C virus, Huh-7, 72 h, read-out: EC50 Value GT1b/5a-NS5A-wt
Description: as §5, §6, §7, §8, §9, §10

[4] = test system: HCV GT1b wild type (wt) replicon; assay: Assay Example 2: activity against HCV GT1b wild-type replicon; assay type: cell-based; details: Hepatitis C virus, read-out: EC50 Value GT1b-wt
Description: as §5, §6, §7, §8, §9, §10

[5] = test system: HCV GT1b/6a NS5A chimeric replicon; assay: Assay Example 2: activity against GT1b/6a NS5A chimeric replicon; assay type: cell-based; details: Hepatitis C virus, Huh-7, 72 h, read-out: EC50 Value GT1b/6a-NS5A-wt
Description: as §5, §6, §7, §8, §9, §10

[6] = test system: hepatitis C virus HCVcc (GT2a, JFH-1); assay: Assay Example 3: activity against infective hepatitis C virus HCVcc (GT2a, JFH-1); assay type: cell-based; details: Huh-7.5.1, 72 h, read-out: EC50 Value GT2a HCVcc
Description: as §1, §2, §3
Drug activity assay: The activity of hRLuc was detected by the addition of Renilla luciferase assay reagent. The original data (RLU) was used for the calculation of the activity of the compounds.
The activity of the compounds was calculated by using the equation below: Inhibition %=(CPD−VC)/(CC−VC)×100%*
as §4

[7] = Assay Example 2: cell viability assay (CellTiter-Fluor), GT1b wild-type replicon plate; assay type: cell-based; details: human, Huh-7 cells with GT1b wild-type replicon, read-out: CC50 Value GT1b-wt
Description: as §5, §6, §7
Cell viability assay: A cell growth fluorescent titration detection reagent CellTiter-Fluor was added to the 96-well plate of the GT1b wild-type replicon. After the cells were cultured for 1 hour in a 37° C. incubator with 5% CO2, the fluorescence signal value (RFU) was detected by Envision, and the original data (RFU) was used for the calculation of the cytotoxicity of the compounds.
as §9, §10

[8] = test system: HCV GT1a wild-type replicon; assay: Assay Example 6: drug resistance, activity against HCV GT1a wild-type replicon; assay type: cell-based; details: Hepatitis C virus, 72 h, Huh-7 cells, transient transfection, 3 days, read-out: GT1a-wt EC50 value
Description: (§11) Cells: Huh-7 cells are liver cancer cell strains (from AppTec, USA), HCVGT1a wild-type replicon and GT1a-NS5A-Y93H and GT1a-NS5A-L31V mutant replicons
(§12) Treatment of Compound: According to the assay final concentrations of the compounds in Table 11, DMSO stock solutions of the compounds were diluted and then added to a 96-well assay plate. The final concentration of DMSO was 0.5%.
as §7
(§13) Compound activity assay: Luminescence signal value (RLU) was detected with Envision within 5 minutes by using the luciferase assay reagent Britelite plus, and the original data (RLU) was used for the calculation of the activity of the compounds.
(§14) The activity of the compounds was calculated by using the equation below: Inhibition %=(CPD−ZPE)/(HPE−ZPE)×100%*
(§15) The compound activity percentages (Inhibition %) were imported into GraphPad Prism software, and curves were fitted by using nonlinear regression method to obtain the corresponding curves of the compounds and the inhibitory activity (EC50) values against the HCV replicon thereof.

[9] = test system: HCV GT1a wild type (wt) replicon; assay: Assay Example 2: activity against HCV GT1a wild-type replicon; assay type: cell-based; details: Hepatitis C virus, 72 h, Huh-7 cells, transient transfection, 3 days
Description: as §5, §6, §7, §8, §9, §10

[10] = test system: GT1a-NS5A-L31V mutant replicon; assay: Assay Example 6: drug resistance, activity against GT1a-NS5A-L31V mutant replicon; assay type: cell-based, hepatitis C virus; details: for GT1a-NS5A-L31V Fold change: EC50 mutant versus GT1a-wt; for EC50: Hepatitis C virus, GT1A, Huh-7, 72 h, read-out: GT1a-NS5A-L31V EC50 value
Description: as §11, §12, §7, §13, §14, §15

[11] = test system: GT1a-NS5A-Y93H mutant replicon; assay: Assay Example 6: drug resistance, activity against GT1a-NS5A-Y93H mutant replicon; assay type: cell-based, hepatitis C virus; details: for GT1a-NS5A-Y93H Fold change: EC50 mutant versus GT1a-wt; for EC50: Hepatitis C virus, GT1A, Huh-7, 72 h, read-out: GT1a-NS5A-Y93H EC50 value
Description: as §11, §12, §7, §13, §14, §15

[12] = test system: HCV GT1b/4a NS5A chimeric replicon; assay: Assay Example 2: activity against GT1b/4a NS5A chimeric replicon; assay type: cell-based; details: Hepatitis C virus, Huh-7, 72 h, read-out: EC50 Value GT1b/4a-NS5A-wt
Description: as §5, §6, §7, §8, §9, §10

[13] = 72 h, Huh-7 cells, transient transfection, 3 days
[14] = Huh-7 cells transfected with HCV GT1b wild-type replicon RNA

SMILES	CC50 at 3 days [1]	EC50 [2]	EC50 [3]	EC50 [4, 13]	EC50 [5]	EC50 [6]	CC50 at 3 days [7, 14]	EC50 [8]	EC50 [9]	GT1a-NS5A-L31V Fold change [10]	EC50 [10]	GT1a-NS5A-Y93H Fold change [11]	EC50 [11]	EC50 [12]	EC50 ([4]; Huh-7, 72 h)	CC50 at 3 days [7]
COC[C@H]1C[C@@H](C(=O)Nc2ccc([C@H]3CC[C@H](c4ccc5nc([C@@H]6CCCN6C(=O)[C@@H](NC(=O)OC)[C@@H](C)OC)[nH]c5c4)N3c3cc(F)c(N4CC[Si](C)(C)CC4)c(F)c3)cc2)N(C(=O)[C@@H](NC(=O)OC)[C@@H](C)OC)C1 [Compound 18b]	> 0.1 nM	7.14 pM	4.5 pM	2.59 pM	1.75 pM	1.15 pM	> 0.2 nM	–	–	–	–	–	–	–	–	–
COC(=O)N[C@H](C(=O)N1CCC[C@H]1c1nc2cc([C@H]3CC[C@H](c4cc5nc([C@@H]6CCCN6C(=O)[C@@H](NC(=O)OC)[C@@H](C)OC)[nH]c5cc4F)N3c3cc(F)c(N4CC[Si](C)(C)CC4)c(F)c3)c(F)cc2[nH]1)[C@@H](C)OC [Compound 9b]	> 0.1 nM	3.8 pM	6.08 pM	5.28 pM	1.13 pM	–	> 0.2 nM	2 pM	1.01 pM	0.9	1.7 pM	20.0	0.04 nM	2.49 pM	–	–
COC[C@H]1C[C@@H](C(=O)Nc2ccc([C@H]3CC[C@H](c4cc5[nH]c([C@@H]6CCCN6C(=O)[C@@H](NC(=O)OC)[C@@H](C)OC)nc5cc4F)N3c3cc(F)c(N4CC[Si](C)(C)CC4)c(F)c3)cc2)N(C(=O)[C@@H](NC(=O)OC)[C@@H](C)OC)C1 [Compound 17b]	> 0.1 nM	5.71 pM	4.66 pM	3.06 pM	1.09 pM	2.68 pM	> 0.2 nM	–	–	–	–	–	–	1.66 pM	–	–
COC(=O)N[C@H](C(=O)N1CCC[C@H]1C(=O)Nc1ccc([C@H]2CC[C@H](c3cc4[nH]c([C@@H]5CCCN5C(=O)[C@@H](NC(=O)OC)[C@@H](C)OC)nc4cc3F)N2c2cc(F)c(N3CC[Si](C)(C)CC3)c(F)c2)cc1)[C@@H](C)OC [Compound 14b]	> 0.1 nM	6.11 pM	5.37 pM	2.92 pM	1.12 pM	–	> 0.2 nM	2.9 pM	1.07 pM	11.0	32 pM	–	–	1.59 pM	–	–
COC(=O)N[C@H](C(=O)N1CCC[C@H]1c1nc2cc([C@H]3CC[C@H](c4ccc5[nH]c([C@@H]6CCCN6C(=O)[C@@H](NC(=O)OC)[C@@H](C)OC)nc5c4)N3c3cc(F)c(N4CC[Si]5(CCCC5)CC4)c(F)c3)ccc2[nH]1)[C@@H](C)OC [Compound 7b]	–	10.3 pM	–	3.3 pM	–	–	> 0.2 nM	1.8 pM	1.44 pM	3.4	6.1 pM	502	0.903 nM	–	–	–
COC(=O)N[C@H](C(=O)N1CCC[C@H]1C(=O)Nc1ccc([C@@H]2CC[C@@H](c3ccc(NC(=O)[C@@H]4CCCN4C(=O)[C@@H](NC(=O)OC)[C@@H](C)OC)cc3)N2c2cc(F)c(N3CC[Si]4(CCCCC4)CC3)c(F)c2)cc1)[C@@H](C)OC [Compound 11a]	–	8.8 pM	–	–	1.69 pM	–	–	–	–	–	–	–	–	–	1.34 pM	> 0.2 nM
